Results: paper PMC8338929, “Acetylation turns leucine into a drug by membrane transporter switching” (Scientific Reports, 2021)
pIC50: −log10 of the molar value.

Assays:
[1] = target: T1, human LAT1 (SLC7A5) (Homo sapiens, UniProt Q01650); assay: LAT1-mediated cellular uptake in transfected MDCK-II cells; assay type: cell-based; details: HBSS pH 7.4, 3 min, 37 °C
T1 construct: host or cells: MDCK-II
Method: Transport studies with human PepT1 (SLC15A1), LAT1 (SLC7A5) and MCT1 (SLC16A1) were conducted in MDCK-II cells expressing the human transporter or control cells expressing a vector with Green Fluorescence Protein. Cells were transfected using a proprietary, transient transfection system (OPTI-EXPRESSION Technology, BioIVT). The results from the control cells were used to correct for substrate permeation by routes other than the transporter being investigated in the study. […] Specifically, Net Transporter Mediated Substrate Uptake (pmol/min/cm^2) = (Cellular accumulation in the presence of the transporter) − (Mean cellular accumulation in the absence of the transporter). MDCK-II cells were maintained in DMEM with low glucose and 10% FBS. Cells were used at passages up to 40 were seeded at 60,000 ± 10,000 cells/well on 96-well plates approximately 24 h before transfection, and transport assays were performed approximately 48 h after transfection. […]
Transport studies with PepT1 were conducted in 96-well cell culture plate with wells containing a monolayer of MDCK-II cells grown on a permeable support and a corresponding 96-well receiver tray. […] Then a 30-µL sample was taken and mixed with 200 µL of scintillation fluid and scintillation counted (1450 Microbeta, Perkin-Elmer). […]

[2] = target: T2, Human OAT1 (SLC22A6) (Homo sapiens, UniProt Q4U2R8); assay: Inhibition of OAT1 uptake of probe substrate chlorothiazide in HEK-293 cells; assay type: cell-based; details: probe chlorothiazide 3 µM; positive control diclofenac 100 µM
T2 construct: host or cells: HEK-293
T2 sequence (Q4U2R8 1-563): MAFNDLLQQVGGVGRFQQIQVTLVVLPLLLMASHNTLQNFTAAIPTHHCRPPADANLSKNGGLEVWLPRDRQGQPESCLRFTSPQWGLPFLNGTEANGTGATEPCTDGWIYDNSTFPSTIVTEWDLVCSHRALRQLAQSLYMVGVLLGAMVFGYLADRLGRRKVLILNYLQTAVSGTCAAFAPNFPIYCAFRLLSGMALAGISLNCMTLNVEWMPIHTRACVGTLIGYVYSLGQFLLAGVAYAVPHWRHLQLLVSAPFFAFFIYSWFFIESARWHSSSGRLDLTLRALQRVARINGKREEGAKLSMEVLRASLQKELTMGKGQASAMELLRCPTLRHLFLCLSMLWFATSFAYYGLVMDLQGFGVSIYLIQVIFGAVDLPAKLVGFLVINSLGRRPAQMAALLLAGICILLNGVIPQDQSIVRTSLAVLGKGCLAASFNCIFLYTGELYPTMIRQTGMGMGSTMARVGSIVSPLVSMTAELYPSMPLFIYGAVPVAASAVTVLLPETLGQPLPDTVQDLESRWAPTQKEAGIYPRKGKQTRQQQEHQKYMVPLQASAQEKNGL
Method: Cells were grown in DMEM (Gibco 4196, high glucose, without sodium pyruvate) supplemented with MEM non-essential amino acids and 10% fetal bovine serum. Cells were re-fed with fresh medium after attachment (4–6 h post-seeding). Cell were plated at a density of 4 × 10^5/well in 24-well plates coated with poly-D-lysine. Transporter assays were conducted in 400 µL of HBSS supplemented with 10 mM Hepes, pH 7.4
The known probe substrates used as positive controls were 3 μM chlorothiazide for OAT1, 2 μM estrone-3-sulfate for OAT3, 10 µM [^3H]gabapentin for LAT1, 50 µM [^3H]Gly-Sar for PepT1, 500 µM thiophene-2-glyoxylic acid for MCT1. The known inhibitors used as controls for each transporter were 100 μM diclofenac for OAT1 and OAT3, 10 µM JPH203 for LAT1 and 200 µM losartan for PepT1. All incubations were in triplicate and contained 1% (OAT1 and OAT3) or 0.5% DMSO (LAT, PepT1 and MCT1). […]
[I] is the inhibitor concentration and IC50 is the inhibitor concentration where the remaining activity is at the midpoint between the Top and Bottom. […] In inhibition experiments, the IC50 is not equivalent to affinity because it is dependent on the concentrations of the substrate, the inhibitor and affinity; therefore, we assumed competitive inhibition, and calculated affinity of inhibition (Ki) with the Cheng-Prusoff equation[49].

T1 sequence (Q01650 whole entry): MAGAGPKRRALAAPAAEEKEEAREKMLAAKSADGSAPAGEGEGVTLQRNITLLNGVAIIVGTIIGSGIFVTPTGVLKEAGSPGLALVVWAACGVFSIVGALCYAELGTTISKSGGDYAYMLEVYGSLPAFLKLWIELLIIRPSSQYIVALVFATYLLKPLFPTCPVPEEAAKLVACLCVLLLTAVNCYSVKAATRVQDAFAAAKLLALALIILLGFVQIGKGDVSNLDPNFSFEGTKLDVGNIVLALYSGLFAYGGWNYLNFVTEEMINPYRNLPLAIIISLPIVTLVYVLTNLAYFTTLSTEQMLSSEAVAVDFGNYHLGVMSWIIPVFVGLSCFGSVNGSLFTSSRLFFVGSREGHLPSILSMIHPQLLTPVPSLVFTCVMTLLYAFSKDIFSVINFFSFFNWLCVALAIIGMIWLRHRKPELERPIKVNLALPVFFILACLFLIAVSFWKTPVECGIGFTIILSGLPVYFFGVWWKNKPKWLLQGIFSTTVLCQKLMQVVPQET
T1 sequence (P08195 102-630 partner): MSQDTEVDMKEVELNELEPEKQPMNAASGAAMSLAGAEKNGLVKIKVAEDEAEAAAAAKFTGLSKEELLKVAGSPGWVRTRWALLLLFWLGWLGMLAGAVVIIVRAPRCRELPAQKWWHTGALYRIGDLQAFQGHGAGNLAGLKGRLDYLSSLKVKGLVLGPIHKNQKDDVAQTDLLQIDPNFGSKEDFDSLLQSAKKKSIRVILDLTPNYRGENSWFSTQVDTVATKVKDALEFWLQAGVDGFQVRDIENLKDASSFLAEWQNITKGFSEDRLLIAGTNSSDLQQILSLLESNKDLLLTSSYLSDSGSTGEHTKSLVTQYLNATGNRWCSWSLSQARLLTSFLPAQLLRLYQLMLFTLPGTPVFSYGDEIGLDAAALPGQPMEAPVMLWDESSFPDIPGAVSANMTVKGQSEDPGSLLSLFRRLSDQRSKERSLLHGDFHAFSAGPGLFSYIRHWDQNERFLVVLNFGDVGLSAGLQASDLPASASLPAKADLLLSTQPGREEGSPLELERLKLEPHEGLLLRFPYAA

SMILES: CC(=O)N[C@@H](CC(C)C)C(=O)O [N-acetyl-L-leucine]
- substrate of LAT1 (uptake) [1]: not transported
- substrate of LAT1 (uptake) ([1]; listed as N-acetyl-leucine): not a substrate
- pIC50 [2]: 2.21
